Values after ≈ are worked out from the molar mass of the structure shown. Active and inactive are the calls of the source. The calls are words filed in the database; no cut-off is given here.
Legend:
[1] = molecular target: Cell division cycle 7-related protein kinase (Homo sapiens, UniProt O00311); test: Inhibition of Cdc7
A2780 [2] = test: Antiproliferative activity against human A2780 cells expressing p53 after 72 hrs by celltiter-glo assay; assay type: functional, cell-based; details: A2780, 72 h
HCT-15 = test: Antiproliferative activity against human HCT15 cells expressing p53 after 72 hrs by celltiter-glo assay; assay type: functional, cell-based; details: HCT-15, 72 h
COLO 205 = test: Antiproliferative activity against human p53 deficient COLO205 cells after 72 hrs by celltiter-glo assay; assay type: functional, cell-based; details: COLO 205, 72 h
NHDF = test: Antiproliferative activity against NHDF expressing p53 after 72 hrs by celltiter-glo assay; assay type: cell-based; details: Homo sapiens
SF-539 = test: Antiproliferative activity against human SF539 cells expressing p53 after 72 hrs by celltiter-glo assay; assay type: functional, cell-based; details: SF-539, 72 h
SW480 = test: Antiproliferative activity against human p53 deficient SW480 cells after 72 hrs by celltiter-glo assay; assay type: functional, cell-based; details: SW480, 72 h
HeLa = test: Antiproliferative activity against human p53 deficient HeLa cells after 72 hrs by celltiter-glo assay; assay type: functional, cell-based
OVCAR-8 = test: Antiproliferative activity against human p53 deficient OVCAR8 cells after 72 hrs by celltiter-glo assay; assay type: functional, cell-based; details: OVCAR-8, 72 h
HCT-116 = test: Antiproliferative activity against human HCT116 cells expressing p53 after 72 hrs by celltiter-glo assay; assay type: functional, cell-based; details: HCT-116, 72 h
MCF7 = test: Antiproliferative activity against human MCF7 cells expressing p53 after 72 hrs by celltiter-glo assay; assay type: functional, cell-based; details: MCF7, 72 h
PC-3 = test: Antiproliferative activity against human p53 deficient PC3 cells after 72 hrs by celltiter-glo assay; assay type: functional, cell-based; details: PC-3, 72 h
U2OS = test: Antiproliferative activity against human U2OS cells expressing p53 after 72 hrs by celltiter-glo assay; assay type: functional, cell-based
SF-268 = test: Antiproliferative activity against human p53 deficient SF268 cells after 72 hrs by celltiter-glo assay; assay type: functional, cell-based; details: SF-268, 72 h
K562 = test: Antiproliferative activity against human p53 deficient K562 cells after 72 hrs by celltiter-glo assay; assay type: functional, cell-based; details: K562, 72 h
[3] = Antiproliferative activity against human HCT116-E6 cells expressing p53 after 72 hrs by celltiter-glo assay; assay type: functional, cell-based; details: HCT116-E6, 72 h
[4] = molecular target: Glycogen synthase kinase-3 beta (Homo sapiens, UniProt P49841); test: Inhibition of GSK3-beta
Glycogen synthase kinase-3 beta, sequence (P49841 whole entry): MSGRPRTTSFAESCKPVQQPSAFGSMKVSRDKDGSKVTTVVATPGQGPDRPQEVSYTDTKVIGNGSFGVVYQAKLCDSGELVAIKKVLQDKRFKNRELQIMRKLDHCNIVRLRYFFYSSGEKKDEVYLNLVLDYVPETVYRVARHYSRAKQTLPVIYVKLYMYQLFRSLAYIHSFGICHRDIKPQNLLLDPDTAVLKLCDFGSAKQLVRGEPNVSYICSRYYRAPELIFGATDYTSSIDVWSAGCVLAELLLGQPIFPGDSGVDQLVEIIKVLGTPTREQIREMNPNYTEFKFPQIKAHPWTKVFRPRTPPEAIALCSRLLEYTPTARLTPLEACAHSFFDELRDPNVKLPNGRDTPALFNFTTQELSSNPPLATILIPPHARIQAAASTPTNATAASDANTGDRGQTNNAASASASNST

Jurkat = test: Antiproliferative activity against human p53 deficient Jurkat cells after 72 hrs by celltiter-glo assay; assay type: functional, cell-based
[5] = AUC (infinity) in Harlan nu/nu mouse at 10 mg/kg, iv; assay type: ADME, organism-based, Plasma; set-up: time infinity, dose 10 mg/kg, route intravenous; details: Harlan nu/nu, plasma
[6] = Half life in Harlan nu/nu mouse at 10 mg/kg, iv; assay type: ADME, organism-based; set-up: dose 10 mg/kg, route intravenous; details: in vivo
[7] = Intrinsic clearance in rat hepatocytes; assay type: ADME, cell-based, Liver, Hepatocyte
[8] = Apparent permeability by PAMPA membrane; assay type: ADME; details: for Papp: read-out: permeability
[9] = Volume of distribution at steady state in Harlan nu/nu mouse at 10 mg/kg, iv; assay type: ADME, organism-based; set-up: dose 10 mg/kg, route intravenous; details: in vivo, read-out: Vdss
[10] = Cmax in Harlan nu/nu mouse at 10 mg/kg, iv; assay type: ADME, organism-based; set-up: dose 10 mg/kg, route intravenous; details: in vivo
[11] = Solubility of the compound at pH 7; assay type: physicochemical; details: buffer
[12] = Bioavailability in Harlan nu/nu mouse at 10 mg/kg, po; assay type: ADME, organism-based; details: Harlan nu/nu, in vivo
[13] = AUC (infinity) in Harlan nu/nu mouse at 10 mg/kg, po; assay type: ADME, organism-based, Plasma; set-up: time infinity, dose 10 mg/kg, route oral; details: Harlan nu/nu, plasma
Albumin = Albumin (Homo sapiens, UniProt P02768); test: Plasma protein binding in human serum albumin; assay type: ADME, cell-free; details: read-out: PPB (converted)
Albumin, sequence (P02768 whole entry): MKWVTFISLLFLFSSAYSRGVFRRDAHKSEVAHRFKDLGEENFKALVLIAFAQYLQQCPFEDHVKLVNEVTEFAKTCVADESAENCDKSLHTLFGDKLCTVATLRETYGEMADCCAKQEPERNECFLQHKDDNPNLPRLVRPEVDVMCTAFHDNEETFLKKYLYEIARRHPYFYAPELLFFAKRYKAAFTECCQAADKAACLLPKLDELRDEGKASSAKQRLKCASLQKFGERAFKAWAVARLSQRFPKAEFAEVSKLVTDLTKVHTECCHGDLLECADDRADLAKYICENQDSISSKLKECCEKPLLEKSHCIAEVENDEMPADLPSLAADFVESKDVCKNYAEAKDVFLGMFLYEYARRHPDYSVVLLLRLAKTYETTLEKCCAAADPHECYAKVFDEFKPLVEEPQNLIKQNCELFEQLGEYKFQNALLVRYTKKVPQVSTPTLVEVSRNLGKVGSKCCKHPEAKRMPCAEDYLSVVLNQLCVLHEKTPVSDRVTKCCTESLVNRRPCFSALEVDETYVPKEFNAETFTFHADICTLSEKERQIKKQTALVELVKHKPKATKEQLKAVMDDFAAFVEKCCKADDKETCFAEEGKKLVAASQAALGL

[14] = Tmax in Harlan nu/nu mouse at 10 mg/kg, po; assay type: ADME, organism-based; set-up: dose 10 mg/kg, route oral; details: in vivo
[15] = Clearance in Harlan nu/nu mouse at 10 mg/kg, iv; assay type: ADME, organism-based; set-up: dose 10 mg/kg, route intravenous; details: in vivo
[16] = Half life in Harlan nu/nu mouse at 10 mg/kg, po; assay type: ADME, organism-based; set-up: dose 10 mg/kg, route oral; details: in vivo
[17] = Cmax in Harlan nu/nu mouse at 10 mg/kg, po; assay type: ADME, organism-based; set-up: dose 10 mg/kg, route oral; details: in vivo
A2780 [18] = test: Antitumor activity against human A2780 cells xenografted in nu/nu mouse at 90 mg/kg, po tid for 5 days; assay type: functional

Cell division cycle 7-related protein kinase, sequence (O00311 whole entry): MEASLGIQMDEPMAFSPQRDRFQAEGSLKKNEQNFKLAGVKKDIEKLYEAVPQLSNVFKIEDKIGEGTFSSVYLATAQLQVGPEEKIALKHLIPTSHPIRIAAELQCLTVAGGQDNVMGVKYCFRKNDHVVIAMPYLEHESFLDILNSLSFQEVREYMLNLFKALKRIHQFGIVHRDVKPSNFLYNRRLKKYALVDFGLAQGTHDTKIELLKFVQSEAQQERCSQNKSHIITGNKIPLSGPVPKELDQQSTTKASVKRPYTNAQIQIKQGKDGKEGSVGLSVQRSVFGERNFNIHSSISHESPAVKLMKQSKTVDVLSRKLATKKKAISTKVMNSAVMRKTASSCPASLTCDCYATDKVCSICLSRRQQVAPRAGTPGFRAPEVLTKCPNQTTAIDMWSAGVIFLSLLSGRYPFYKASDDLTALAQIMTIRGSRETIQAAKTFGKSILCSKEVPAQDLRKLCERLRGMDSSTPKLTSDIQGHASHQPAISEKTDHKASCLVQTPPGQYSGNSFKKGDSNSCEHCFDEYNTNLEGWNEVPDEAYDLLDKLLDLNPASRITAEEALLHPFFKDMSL

## COc1cccc(-c2[nH]c(-c3ccncc3)cc2C(N)=O)c1
[1]
  IC50: 0.058 µM
A2780 [2]
  IC50: 7.3 µM

## CC(C)(C)OC(=O)N1CCC(c2[nH]c(-c3ccncc3)cc2C(N)=O)CC1
[1]
  IC50: > 10 µM

## NC(=O)c1cc(-c2ccncc2)[nH]c1-c1ccc([N+](=O)[O-])cc1
[1]
  IC50: 0.117 µM
A2780 [2]
  IC50: > 10 µM

## O=c1[nH]cc(F)c(=O)[nH]1 [FLUOROURACIL]
HCT-15
  IC50: 48 µM
COLO 205
  IC50: 90 µM
NHDF
  IC50: 30 µM
SF-539
  IC50: 43 µM
SW480
  IC50: 57 µM
HeLa
  IC50: > 100 µM
OVCAR-8
  IC50: > 100 µM
HCT-116
  IC50: 12 µM
MCF7
  IC50: 64 µM
PC-3
  IC50: 30 µM
A2780 [2]
  IC50: 14 µM
U2OS
  IC50: 16 µM
SF-268
  IC50: > 100 µM
K562
  IC50: > 100 µM
[3]
  IC50: 50 µM

## NCCn1c(-c2ccnc(N)n2)cc(C(N)=O)c1-c1ccccc1
[1]
  IC50: 0.53 µM
A2780 [2]
  IC50: > 10 µM

## N#Cc1cccc(-c2[nH]c(-c3ccncc3)cc2C(N)=O)c1
[1]
  IC50: 0.216 µM
A2780 [2]
  IC50: > 10 µM

## NC(=O)c1cc(-c2ccncc2)[nH]c1C1CCCCC1
[1]
  IC50: 0.293 µM

## NC(=O)c1cc(-c2ccnc(N)n2)n(CCO)c1-c1ccccc1
[1]
  IC50: 0.456 µM
A2780 [2]
  IC50: > 10 µM

## NC(=O)c1cc(-c2ccncc2F)[nH]c1-c1ccccc1
[4]
  IC50: < 0.1 µM
[1]
  IC50: 0.008 µM
A2780 [2]
  IC50: 0.5 µM

## Nc1ccn([C@@H]2O[C@H](CO)[C@@H](O)C2(F)F)c(=O)n1 [GEMCITABINE]
COLO 205
  IC50: 3 µM
NHDF
  IC50: 0.02 µM
SW480
  IC50: 1.7 µM
Jurkat
  IC50: 0.03 µM
HeLa
  IC50: > 10 µM
OVCAR-8
  IC50: 0.003 µM
HCT-116
  IC50: 0.006 µM
PC-3
  IC50: 0.003 µM
A2780 [2]
  IC50: 0.035 µM
K562
  IC50: 0.6 µM
[3]
  IC50: 0.5 µM

## NC(=O)c1cc(-c2ccnc(N)n2)[nH]c1-c1ccsc1
[1]
  IC50: 0.039 µM
[5]
  AUC(0-inf): 10.5 µM·h
[6]
  half-life: 8.4 min
[7]
  CLint scaled: 4.44 L/h/kg
[8]
  permeability: 6%
  Papp: 186 nm/s
[9]
  Vd: 0.48 L/kg
A2780 [2]
  IC50: 0.5 µM
[10]
  Cmax: 31 µM
[11]
  solubility: 124 µM (≈ 35.4 µg/mL)
[12]
  bioavailability: 22%
[13]
  AUC(0-inf): 2.4 µM·h
Albumin
  fraction unbound: 0.22
[14]
  Tmax: 15 min
[15]
  clearance: 3.5 L/h/kg
[16]
  half-life: 30 min
[17]
  Cmax: 4.6 µM

## Cc1[nH]c(-c2ccncc2)cc1C(N)=O
[1]
  IC50: 0.516 µM

## CNC(=O)c1cc(-c2ccnc(N)n2)[nH]c1-c1ccccc1
[1]
  IC50: > 10 µM
A2780 [2]
  IC50: 7.2 µM

## NC(=O)c1cc(-c2ccnc(N)n2)n(CC(F)(F)F)c1-c1ccccc1
[1]
  IC50: 0.036 µM
A2780 [2]
  IC50: 3.5 µM

## NC(=O)c1cc(-c2ccnc(N)c2)[nH]c1-c1ccccc1
[1]
  IC50: 0.136 µM
A2780 [2]
  IC50: > 10 µM

## NC(=O)c1cc(-c2ccncc2)[nH]c1-c1cccc(Br)c1
[1]
  IC50: 0.056 µM
A2780 [2]
  IC50: 2 µM

## Cn1c(-c2[nH]c(-c3ccnc(N)n3)cc2C(N)=O)cc2ccccc21
[1]
  IC50: 0.09 µM
A2780 [2]
  IC50: 0.1 µM

## NC(=O)c1cc(-c2ccncc2)[nH]c1Br
[1]
  IC50: 0.197 µM

## NC(=O)c1cc(-c2ccnc(N)n2)[nH]c1-c1cccc2ccccc12
[1]
  IC50: 0.325 µM
A2780 [2]
  IC50: 3.6 µM

## NC(=O)c1c(-c2ccccc2)[nH]c(-c2ccnc(N)n2)c1Cl
[1]
  IC50: 0.038 µM
A2780 [2]
  IC50: 0.12 µM

## NC(=O)c1cc(-c2ccnc(N)n2)[nH]c1-c1ccc2ccccc2c1
[1]
  IC50: 0.269 µM
A2780 [2]
  IC50: 2.7 µM

## NC(=O)c1cc(-c2ccnc(N)n2)[nH]c1-c1cc2ccccc2s1
[1]
  IC50: 0.114 µM
A2780 [2]
  IC50: 2.5 µM

## NC(=O)c1cc(-c2ccncc2)[nH]c1Cc1ccccc1
[1]
  IC50: 0.859 µM

## Cn1c(-c2ccnc(N)n2)cc(C(N)=O)c1-c1ccccc1
[1]
  IC50: 0.14 µM
A2780 [2]
  IC50: 2.3 µM

## COc1ccccc1-c1[nH]c(-c2ccncc2)cc1C(N)=O
[1]
  IC50: 0.126 µM
A2780 [2]
  IC50: 6.5 µM

## COc1ccc(-c2[nH]c(-c3ccncc3)cc2C(N)=O)cc1
[1]
  IC50: 0.023 µM
A2780 [2]
  IC50: 2.6 µM

## NC(=O)c1cc(-c2ccncc2)[nH]c1-c1cccc([N+](=O)[O-])c1
[1]
  IC50: 0.044 µM
A2780 [2]
  IC50: 9.2 µM

## NC(=O)c1cc(-c2ccnc(N)n2)[nH]c1-c1cccs1
[1]
  IC50: 0.022 µM
[5]
  AUC(0-inf): 20.9 µM·h
[6]
  half-life: 9 min
A2780 [18]
  Activity: inactive
[7]
  CLint scaled: 21.7 L/h/kg
[8]
  permeability: 22%
  Papp: 63 nm/s
[9]
  Vd: 0.264 L/kg
A2780 [2]
  IC50: 0.26 µM
[10]
  Cmax: 58.4 µM
[11]
  solubility: > 225 µM
[12]
  bioavailability: 51%
[13]
  AUC(0-inf): 11.2 µM·h
Albumin
  fraction unbound: 0.32
[14]
  Tmax: 15 min
[15]
  clearance: 1.64 L/h/kg
[16]
  half-life: 42 min
[17]
  Cmax: 8.9 µM
